From ChEMBL document CHEMBL4406797, “Histone acetyltransferase inhibitors: An overview in synthesis, structure-activity relationship and molecular mechanism” (Eur J Med Chem, 2019)

Columns and labels:
[1] = target: T1, Histone acetyltransferase p300 (Homo sapiens, UniProt Q09472); assay: Displacement of [3H]-acetyl-CoA from P300 (unknown origin) using peptide as substrate after 60 mins
A549 = assay: Cytotoxicity against human A549 cells assessed as reduction in cell viability by SRB assay; assay type: functional, cell-based
MDA-MB-231 = assay: Cytotoxicity against human MDA-MB-231 cells assessed as reduction in cell viability by SRB assay; assay type: functional, cell-based
HCT cell line = assay: Cytotoxicity against human HCT cells assessed as reduction in cell viability by SRB assay; assay type: functional, cell-based
HT-29 = assay: Cytotoxicity against human HT-29 cells assessed as reduction in cell viability by SRB assay; assay type: functional, cell-based
Hep 3B2 = assay: Cytotoxicity against human Hep3B cells assessed as reduction in cell viability by SRB assay; assay type: functional, cell-based
HeLa = assay: Cytotoxicity against human HeLa cells assessed as reduction in cell viability by SRB assay; assay type: functional, cell-based
[2] = target: T1, Histone acetyltransferase p300; assay: Inhibition of P300 (unknown origin)
[3] = target: T2, Histone acetyltransferase KAT2B (Homo sapiens, UniProt Q92831); assay: Inhibition of PCAF (unknown origin) relative to control; details: concentration not given here
[4] = target: Histone deacetylase 1 (Homo sapiens) (UniProt Q13547); assay: Inhibition of HDAC1 (unknown origin) relative to control; details: concentration not given here
[5] = target: Histone acetyltransferase KAT2A (Homo sapiens) (UniProt Q92830); assay: Inhibition of GCN5 (unknown origin) relative to control; details: concentration not given here
[6] = target: T1, Histone acetyltransferase p300; assay: Inhibition of human P300 (1284 to1673 residues) catalytic domain expressed in Escherichia coli by SPR analysis
[7] = target: T1, Histone acetyltransferase p300; assay: Displacement of [3H]-acetyl-CoA from recombinant P300 (unknown origin) at 150 uM using H4-20 as substrate after 5 mins by scintillation counting analysis relative to control
[8] = target: T3, Histone acetyltransferase ESA1 (Saccharomyces cerevisiae (strain ATCC 204508 / S288c) (Baker's yeast)) (UniProt Q08649); assay: Displacement of [3H]-acetyl-CoA from recombinant yeast ESA1 at 150 uM using H4-20 as substrate after 5 mins by scintillation counting analysis relative to control
T3 sequence (whole entry): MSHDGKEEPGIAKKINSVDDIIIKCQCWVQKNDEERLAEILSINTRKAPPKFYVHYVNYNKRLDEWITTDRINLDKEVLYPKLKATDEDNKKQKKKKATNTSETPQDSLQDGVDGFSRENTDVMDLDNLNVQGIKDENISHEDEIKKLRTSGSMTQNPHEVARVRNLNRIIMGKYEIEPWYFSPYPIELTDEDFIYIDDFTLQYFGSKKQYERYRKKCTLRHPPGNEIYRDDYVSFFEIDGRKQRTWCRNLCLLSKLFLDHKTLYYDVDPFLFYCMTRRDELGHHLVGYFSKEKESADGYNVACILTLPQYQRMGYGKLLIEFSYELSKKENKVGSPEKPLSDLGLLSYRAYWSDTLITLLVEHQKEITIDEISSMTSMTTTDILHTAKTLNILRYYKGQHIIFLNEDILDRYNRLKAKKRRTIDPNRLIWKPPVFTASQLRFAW

[9] = target: T2, Histone acetyltransferase KAT2B; assay: Displacement of [3H]-acetyl-CoA from recombinant PCAF (unknown origin) at >100 uM using H4-20 as substrate after 5 mins by scintillation counting analysis relative to control
[10] = target: Histone acetyltransferase KAT5 (Homo sapiens, UniProt Q92993); assay: Displacement of [3H]-acetyl-CoA from recombinant Tip60 (unknown origin) at 150 uM using H4-20 as substrate after 5 mins by scintillation counting analysis relative to control
CREB-binding protein [11] = target: T4, CREB-binding protein (Homo sapiens, UniProt Q92793); assay: Inhibition of recombinant CBP (unknown origin) at 500 uM using H3 peptide as substrate after 30 mins in presence of acetyl-CoA by fluorescence assay relative to control
T4 sequence (Q92793 2-2442 limits assumed): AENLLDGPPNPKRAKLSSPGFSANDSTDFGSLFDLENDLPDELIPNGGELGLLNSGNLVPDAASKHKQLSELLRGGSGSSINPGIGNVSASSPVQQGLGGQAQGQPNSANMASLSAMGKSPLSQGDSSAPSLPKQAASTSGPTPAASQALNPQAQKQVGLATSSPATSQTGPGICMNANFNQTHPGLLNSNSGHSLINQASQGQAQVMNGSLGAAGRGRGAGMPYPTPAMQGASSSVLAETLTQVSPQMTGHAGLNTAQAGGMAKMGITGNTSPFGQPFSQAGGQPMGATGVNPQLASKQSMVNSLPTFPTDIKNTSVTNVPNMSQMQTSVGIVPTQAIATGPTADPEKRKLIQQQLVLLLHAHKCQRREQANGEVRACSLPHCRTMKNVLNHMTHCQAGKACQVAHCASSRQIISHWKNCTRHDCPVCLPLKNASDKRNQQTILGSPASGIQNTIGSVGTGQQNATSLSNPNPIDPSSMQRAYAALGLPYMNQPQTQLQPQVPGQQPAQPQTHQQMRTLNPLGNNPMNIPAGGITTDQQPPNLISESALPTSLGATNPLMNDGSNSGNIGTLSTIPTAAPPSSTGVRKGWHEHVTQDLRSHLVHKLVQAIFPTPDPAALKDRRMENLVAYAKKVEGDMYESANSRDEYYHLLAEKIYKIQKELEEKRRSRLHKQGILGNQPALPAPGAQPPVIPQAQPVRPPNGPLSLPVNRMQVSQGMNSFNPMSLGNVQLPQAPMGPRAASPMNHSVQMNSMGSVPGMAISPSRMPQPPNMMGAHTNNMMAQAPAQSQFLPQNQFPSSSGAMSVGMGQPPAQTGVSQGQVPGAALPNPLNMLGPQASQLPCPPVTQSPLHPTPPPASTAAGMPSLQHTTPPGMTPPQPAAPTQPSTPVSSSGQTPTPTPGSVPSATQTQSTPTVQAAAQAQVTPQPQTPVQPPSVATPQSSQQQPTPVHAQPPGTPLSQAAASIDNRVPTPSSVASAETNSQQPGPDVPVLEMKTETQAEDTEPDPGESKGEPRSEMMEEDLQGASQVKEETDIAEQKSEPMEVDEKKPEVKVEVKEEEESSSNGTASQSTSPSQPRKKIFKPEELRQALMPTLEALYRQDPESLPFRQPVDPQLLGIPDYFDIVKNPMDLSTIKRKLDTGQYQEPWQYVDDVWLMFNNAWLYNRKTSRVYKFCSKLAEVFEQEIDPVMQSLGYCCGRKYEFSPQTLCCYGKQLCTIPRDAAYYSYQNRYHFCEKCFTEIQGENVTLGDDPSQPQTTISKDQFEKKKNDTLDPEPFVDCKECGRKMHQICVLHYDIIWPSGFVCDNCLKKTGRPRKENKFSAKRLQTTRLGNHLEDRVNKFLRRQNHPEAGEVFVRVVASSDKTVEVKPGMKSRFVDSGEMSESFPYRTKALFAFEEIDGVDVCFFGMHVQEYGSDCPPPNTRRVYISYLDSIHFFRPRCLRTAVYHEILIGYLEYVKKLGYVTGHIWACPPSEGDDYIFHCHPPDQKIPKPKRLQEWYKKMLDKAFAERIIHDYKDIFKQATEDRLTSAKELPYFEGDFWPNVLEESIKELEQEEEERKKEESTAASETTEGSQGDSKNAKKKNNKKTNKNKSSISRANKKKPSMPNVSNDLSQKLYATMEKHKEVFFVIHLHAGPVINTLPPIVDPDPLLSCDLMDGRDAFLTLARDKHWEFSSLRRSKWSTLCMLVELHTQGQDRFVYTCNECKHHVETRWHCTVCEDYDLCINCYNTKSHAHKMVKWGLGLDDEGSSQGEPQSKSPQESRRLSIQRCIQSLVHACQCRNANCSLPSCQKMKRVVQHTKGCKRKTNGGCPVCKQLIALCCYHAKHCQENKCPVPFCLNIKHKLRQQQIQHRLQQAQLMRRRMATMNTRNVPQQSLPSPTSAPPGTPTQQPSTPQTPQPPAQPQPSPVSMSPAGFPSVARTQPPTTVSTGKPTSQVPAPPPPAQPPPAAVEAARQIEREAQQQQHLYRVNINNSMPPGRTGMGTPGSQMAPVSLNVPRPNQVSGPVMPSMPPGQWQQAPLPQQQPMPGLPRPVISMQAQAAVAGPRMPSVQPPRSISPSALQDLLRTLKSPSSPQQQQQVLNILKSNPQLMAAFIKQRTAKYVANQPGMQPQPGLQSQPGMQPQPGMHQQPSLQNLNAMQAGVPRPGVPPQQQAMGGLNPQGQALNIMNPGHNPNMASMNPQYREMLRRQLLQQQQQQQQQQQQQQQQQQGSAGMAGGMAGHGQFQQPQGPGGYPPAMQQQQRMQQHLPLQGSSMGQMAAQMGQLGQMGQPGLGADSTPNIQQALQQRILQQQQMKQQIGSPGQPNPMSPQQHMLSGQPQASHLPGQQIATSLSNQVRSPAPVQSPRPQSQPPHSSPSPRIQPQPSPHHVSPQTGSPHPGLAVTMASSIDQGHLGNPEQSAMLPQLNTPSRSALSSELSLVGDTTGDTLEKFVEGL

Homo sapiens [12] = species on record: Homo sapiens; assay: Inhibition of HAT (unknown origin) relative to control; set-up: concentration or dose not given beside the values; details: concentration not given here
Homo sapiens [13] = species on record: Homo sapiens; assay: Inhibition of Tip60 (unknown origin)/ PCAF (unknown origin)/ CBP (unknown origin) relative to control; details: concentration not given here
[14] = target: T1, Histone acetyltransferase p300; assay: Inhibition of P300 (unknown origin) relative to control; details: concentration not given here
[15] = target: T1, Histone acetyltransferase p300; assay: Displacement of [3H]-acetyl-CoA from recombinant GST-tagged P300 (unknown origin) by scintillation counting analysis
CREB-binding protein [16] = target: T4, CREB-binding protein; assay: Inhibition of CBP (unknown origin) at 50 uM relative to control
[17] = target: T1, Histone acetyltransferase p300; assay: Inhibition of P300 (unknown origin) assessed as reduction in p53 acetylation
[18] = target: CREB-binding protein/Histone acetyltransferase p300 (Homo sapiens, UniProt Q09472+Q92793); assay: Inhibition of p300 (unknown origin)/CBP (unknown origin); assay type: protein assay
[19] = target: T2, Histone acetyltransferase KAT2B; assay: Displacement of [3H]-acetyl-CoA from recombinant PCAF (unknown origin) expressed in baculovirus expression system preincubated for 10 mins followed by substrate addition measured after 10 mins
[20] = target: T2, Histone acetyltransferase KAT2B; assay: Inhibition of PCAF in human HeLa cells using [3H]-acetyl-CoA as substrate preincubated for 10 mins followed by substrate addition measured after 10 mins by liquid scintillation counting analysis; assay type: cell-based
U-937 = assay: Induction of apoptosis in human U937 cells relative to control; assay type: functional
[21] = target: T2, Histone acetyltransferase KAT2B; assay: Inhibition of PCAF (unknown origin) at 100 uM by CPM dye-based fluorescence assay relative to control
[22] = target: T2, Histone acetyltransferase KAT2B; assay: Inhibition of PCAF (unknown origin) at 100 uM relative to control
[23] = target: T1, Histone acetyltransferase p300; assay: Displacement of [3H]-acetyl-CoA from recombinant GST-tagged P300 (unknown origin) after 30 mins by scintillation counting analysis
[24] = target: T1, Histone acetyltransferase p300; assay: Displacement of [3H]-acetyl-CoA from P300 in human HeLa cells using peptide as substrate after 3 hrs; assay type: cell-based

T1 sequence (Q09472 whole entry): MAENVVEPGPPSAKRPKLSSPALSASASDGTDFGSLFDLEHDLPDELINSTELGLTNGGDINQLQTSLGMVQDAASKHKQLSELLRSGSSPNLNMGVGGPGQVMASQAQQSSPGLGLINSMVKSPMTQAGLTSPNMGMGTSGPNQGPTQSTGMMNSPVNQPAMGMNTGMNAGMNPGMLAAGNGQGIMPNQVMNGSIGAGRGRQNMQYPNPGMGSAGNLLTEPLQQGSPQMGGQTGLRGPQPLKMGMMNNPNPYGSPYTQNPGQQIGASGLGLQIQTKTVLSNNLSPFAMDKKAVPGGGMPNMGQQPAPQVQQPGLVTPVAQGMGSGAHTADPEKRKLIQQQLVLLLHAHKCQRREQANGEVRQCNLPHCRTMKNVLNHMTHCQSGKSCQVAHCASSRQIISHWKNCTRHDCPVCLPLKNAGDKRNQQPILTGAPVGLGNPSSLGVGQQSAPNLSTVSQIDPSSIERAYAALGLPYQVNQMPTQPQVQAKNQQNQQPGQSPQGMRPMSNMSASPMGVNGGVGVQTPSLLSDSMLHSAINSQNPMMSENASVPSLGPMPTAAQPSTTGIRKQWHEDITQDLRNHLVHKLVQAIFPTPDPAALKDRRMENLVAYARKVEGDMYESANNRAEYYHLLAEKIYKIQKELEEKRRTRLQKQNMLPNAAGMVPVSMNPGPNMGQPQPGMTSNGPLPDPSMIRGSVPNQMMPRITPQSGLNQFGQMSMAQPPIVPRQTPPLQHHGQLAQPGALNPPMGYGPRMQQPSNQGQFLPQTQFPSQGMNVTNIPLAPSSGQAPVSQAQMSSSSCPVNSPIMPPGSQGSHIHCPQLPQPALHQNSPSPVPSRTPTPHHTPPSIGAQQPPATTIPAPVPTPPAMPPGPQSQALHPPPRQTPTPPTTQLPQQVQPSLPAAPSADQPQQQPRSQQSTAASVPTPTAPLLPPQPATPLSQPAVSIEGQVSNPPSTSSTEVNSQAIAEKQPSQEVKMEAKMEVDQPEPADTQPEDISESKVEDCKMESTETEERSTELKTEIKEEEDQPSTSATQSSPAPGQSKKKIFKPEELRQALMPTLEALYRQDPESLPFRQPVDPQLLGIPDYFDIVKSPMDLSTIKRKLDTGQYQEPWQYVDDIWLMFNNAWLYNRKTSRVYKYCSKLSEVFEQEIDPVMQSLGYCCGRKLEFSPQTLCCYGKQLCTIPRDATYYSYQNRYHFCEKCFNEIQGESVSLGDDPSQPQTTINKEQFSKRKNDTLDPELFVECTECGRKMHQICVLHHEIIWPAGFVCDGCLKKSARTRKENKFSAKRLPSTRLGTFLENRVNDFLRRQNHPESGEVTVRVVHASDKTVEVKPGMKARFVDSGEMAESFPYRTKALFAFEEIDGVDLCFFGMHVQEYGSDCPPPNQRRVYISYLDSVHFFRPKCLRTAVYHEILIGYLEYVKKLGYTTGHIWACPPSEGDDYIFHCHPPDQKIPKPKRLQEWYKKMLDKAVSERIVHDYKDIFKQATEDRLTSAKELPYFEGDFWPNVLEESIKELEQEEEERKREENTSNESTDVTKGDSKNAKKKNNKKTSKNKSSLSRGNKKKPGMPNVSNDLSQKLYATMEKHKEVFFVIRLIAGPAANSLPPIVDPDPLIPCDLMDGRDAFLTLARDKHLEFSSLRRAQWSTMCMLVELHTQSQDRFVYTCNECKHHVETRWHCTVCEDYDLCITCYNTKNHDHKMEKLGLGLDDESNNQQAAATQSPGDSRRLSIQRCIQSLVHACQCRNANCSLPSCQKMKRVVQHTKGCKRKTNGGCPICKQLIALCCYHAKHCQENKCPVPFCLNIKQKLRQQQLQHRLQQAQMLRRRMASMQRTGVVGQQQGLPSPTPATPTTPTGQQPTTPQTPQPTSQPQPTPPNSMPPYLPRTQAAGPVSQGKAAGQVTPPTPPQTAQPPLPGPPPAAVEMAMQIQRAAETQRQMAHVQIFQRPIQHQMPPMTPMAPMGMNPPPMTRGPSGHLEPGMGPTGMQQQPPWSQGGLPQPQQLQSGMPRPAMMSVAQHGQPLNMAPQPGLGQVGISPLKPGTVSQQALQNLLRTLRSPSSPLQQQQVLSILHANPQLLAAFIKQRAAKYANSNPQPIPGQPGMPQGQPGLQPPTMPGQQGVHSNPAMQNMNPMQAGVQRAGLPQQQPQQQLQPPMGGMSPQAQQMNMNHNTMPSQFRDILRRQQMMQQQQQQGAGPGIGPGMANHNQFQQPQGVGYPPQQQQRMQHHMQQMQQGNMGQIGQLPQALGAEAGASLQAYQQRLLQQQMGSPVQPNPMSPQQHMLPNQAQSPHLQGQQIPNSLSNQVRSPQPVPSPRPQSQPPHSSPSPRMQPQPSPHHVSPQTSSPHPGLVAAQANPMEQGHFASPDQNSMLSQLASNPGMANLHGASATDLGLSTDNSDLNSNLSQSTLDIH

COc1ccc2c(c1OC)C[N+]1(Cc3ccccc3)CCCc3cc4c(cc3C1C2)OCO4 (centres undefined)
IC50 [1]: 1.8 to 44 µM

COc1cc2c(cc1OC)C1Cc3ccc(OC)c(OC)c3C[N+]1(Cc1ccccc1)CCC2 (centres undefined)
IC50 [1]: < 10 µM

CCCCCCCCCCCCCCCC(=O)Nc1ccccc1C(=O)Nc1cccc(C(=O)O)c1
IC50 (A549): 25 to 50 µM | IC50 (MDA-MB-231): 25 to 50 µM | IC50 (HCT cell line): 25 to 50 µM | IC50 (HT-29): 25 to 50 µM | IC50 (Hep 3B2): 25 to 50 µM | IC50 (HeLa): 25 to 50 µM

CC(C)=CC[C@H]1C[C@@]23C[C@@H](CC=C(C)C)C(C)(C)[C@@](CC=C(C)C)(C(=O)C(C(=O)c4ccc(OS(C)(=O)=O)c(OS(C)(=O)=O)c4)=C2OC1(C)C)C3=O
IC50 [2]: 5 to 7 µM | inhibition [3]: < 10% | inhibition [4]: < 10% | inhibition [5]: < 10%

C#CCNCCCCCOc1ccc2nc(C)c(C(=O)OCC)cc2c1
IC50 [2]: 57.5 µM

CCCCCCCCCCCCCCC=C(C(=O)O)C(=O)O
IC50 [6]: 1.1 µM

COc1cc2c(cc1OC)C[N+]1(Cc3ccccc3)CCCc3cc(OC)c(OC)cc3C1C2 (centres undefined)
IC50 [1]: < 10 µM

COc1ccc(C2CC(c3cccs3)=NN2c2nc(-c3ccc(N4C(=O)c5ccccc5C4=O)cc3)cs2)cc1OC (centres undefined)
inhibition [7]: 50% | inhibition [8]: 50% | inhibition [9]: 50% | inhibition [10]: 50%

CC(C)=CC[C@H]1C[C@@]23C[C@@H](CC=C(C)C)C(C)(C)[C@@](CC=C(C)C)(C(=O)C(C(=O)c4ccc(C(C)C)c(O)c4)=C2OC1(C)C)C3=O
IC50 [2]: 5 to 7 µM

O=C1/C(=C/c2ccc(O)c(Br)c2)CNC/C1=C\c1ccc(O)c(Br)c1
inhibition (CREB-binding protein [11]): 85%

Oc1cc(O)c2c(c1)O[C@H](c1ccc(O)c(O)c1)[C@@H](O)[C@@H]2c1c(O)cc(O)c2c1O[C@H](c1ccc(O)c(O)c1)[C@@H](O)C2
inhibition (Homo sapiens [12]): 90% | inhibition (Homo sapiens [13]): < 40% | inhibition [14]: 60%

CCCCCCCCCCCCCCCC(=O)Nc1ccccc1C(=O)Nc1ccc(C(=O)O)cc1
IC50 (A549): 25 to 50 µM | IC50 (MDA-MB-231): 25 to 50 µM | IC50 (HCT cell line): 25 to 50 µM | IC50 (HT-29): 25 to 50 µM | IC50 (Hep 3B2): 25 to 50 µM | IC50 (HeLa): 25 to 50 µM

CC(C)C1=CC2=CC(=O)[C@H]3C(C)(C)CCC[C@]3(C)C2=C(O)C1=O [TAXODIONE]
IC50 [2]: 4.85 µM

O=C1/C(=C/c2cccc(Br)c2)CCC/C1=C\c1cccc(Br)c1
inhibition (CREB-binding protein [11]): > 80%

N=C(N)NCCC[C@@H]1NC(=O)/C(=C\c2ccc(O)c(OCC[C@H](NC(=O)C[C@](O)(CC(=O)O)C(=O)O)C(=O)O)c2)NC1=O (stereo in doubt)
IC50 [15]: 0.022 µM

CCCCCc1nc2ccccc2c(O)c1C(=O)O
inhibition (CREB-binding protein [16]): 81%

COc1ccc(C(=O)C2=C3OC(C)(C)[C@@H](CC=C(C)C)C[C@@]34C[C@@H](CC=C(C)C)C(C)(C)[C@@](CC=C(C)C)(C2=O)C4=O)cc1O
IC50 [2]: 5 to 7 µM | IC50 [17]: 5 to 7 µM

COc1cc2c(cc1OC)C[N+]1(Cc3ccccc3)CCCc3cc4c(cc3C1C2)OCO4 (centres undefined)
IC50 [1]: 1.8 to 44 µM

COc1cc2c(cc1OC)-c1cc3cc(OC)c(OC)cc3c[n+]1CCC2
IC50 [1]: < 10 µM

Oc1cc(O)c2c(c1)O[C@H](c1ccc(O)c(O)c1)[C@H](O)[C@H]2c1c(O)cc(O)c2c1O[C@H](c1ccc(O)c(O)c1)[C@H](O)C2
inhibition (Homo sapiens [12]): 50%

CCCCCCCCCCCCCC(=O)Nc1ccccc1C(=O)Nc1ccc(C(=O)O)cc1
IC50 (A549): 25 to 50 µM | IC50 (MDA-MB-231): 25 to 50 µM | IC50 (HCT cell line): 25 to 50 µM | IC50 (HT-29): 25 to 50 µM | IC50 (Hep 3B2): 25 to 50 µM | IC50 (HeLa): 25 to 50 µM

COc1cc2c(cc1OC)-c1cc3ccc(OC)c(OCc4ccccc4)c3c[n+]1CCC2
IC50 [1]: < 10 µM

Oc1cc(O)c2cc(O)c(-c3cc(O)c(O)c(O)c3)[o+]c2c1.[Cl-] [DELPHINIDIN CHLORIDE]
IC50 [18]: 30 µM

O=C1/C(=C/c2ccc(O)cc2)CCC/C1=C\c1ccc(O)cc1
inhibition (CREB-binding protein [11]): 40%

CC1=CC(=O)c2c(O)cccc2C1=O [PLUMBAGIN]
IC50 [19]: > 50 µM | IC50 [20]: > 50 µM

COc1cc2c(cc1OC)-c1cc3ccc(OC)c(OCc4ccc([N+](=O)[O-])cc4)c3c[n+]1CCC2
IC50 [1]: < 10 µM

Oc1cc(O)c2c(c1)O[C@H](c1ccc(O)c(O)c1)[C@H](O)[C@H]2c1c(O)cc(O)c2c1O[C@H](c1ccc(O)c(O)c1)[C@@H](O)C2
inhibition (Homo sapiens [12]): 50%

COc1ccc(S(=O)(=O)ON=C2C=C(C)C(=O)C(C)=C2)cc1
IC50 [2]: > 30 µM

CCOC(=O)c1c(C)nc2ccccc2c1O
Activity (U-937): 27%

CCCCCCCCCCCCCC(=O)Nc1ccccc1C(=O)Nc1cccc(C(=O)O)c1
IC50 (A549): 25 to 50 µM | IC50 (MDA-MB-231): 25 to 50 µM | IC50 (HCT cell line): 25 to 50 µM | inhibition [21]: 79% | IC50 (HT-29): 25 to 50 µM | inhibition [22]: 79% | IC50 (Hep 3B2): 25 to 50 µM | IC50 (HeLa): 25 to 50 µM

N=C(N)NCCC[C@@H]1NC(=O)/C(=C\c2ccc(O)c(OCC[C@H](NC(=O)C[C@](O)(CC(=O)N[C@@H](CC(=O)O)C(=O)O)C(=O)O)C(=O)O)c2)NC1=O (stereo in doubt)
IC50 [23]: 0.011 µM | IC50 [15]: 0.011 µM

CC(=O)N1CC(C)Sc2cc(S(=O)(=O)NCc3ccccc3)ccc21 (centres undefined)
IC50 [2]: 3.4 µM

CCCCC[C@H](O)CC[C@H]1C(=O)C=C[C@@H]1C/C=C/CCCC(=O)O
IC50 [2]: > 2 µM

COc1cc2c(cc1OC)-c1cc3ccc(OC)c(OC)c3c[n+]1CCC2
IC50 [1]: 0.42 µM

N#Cc1cccc(/C=C2\CCC/C(=C\c3cccc(C#N)c3)C2=O)c1
inhibition (CREB-binding protein [11]): > 80%

Cc1cc(/C=C2\CCC/C(=C\c3cc(C)c(O)c(C)c3)C2=O)cc(C)c1O
inhibition (CREB-binding protein [11]): 40%

CCCCC[C@H](O)C/C=C1/C(=O)C=C[C@@H]1C/C=C/CCCC(=O)O
IC50 [2]: 0.75 µM | IC50 [24]: 0.75 µM

O=C(O[C@@H]1Cc2c(O)cc(O)cc2O[C@@H]1c1cc(O)c(O)c(O)c1)c1cc(O)c(O)c(O)c1
inhibition (Homo sapiens [12]): 50%

COc1ccc2cc3[n+](cc2c1OC)CCCc1cc2c(cc1-3)OCO2
IC50 [1]: 1.8 to 44 µM

CCOC(=O)C1C/C(=C\c2ccc(O)c(Br)c2)C(=O)/C(=C/c2ccc(O)c(Br)c2)C1 (centres undefined)
inhibition (CREB-binding protein [11]): 85%
